Like-named read-outs stand apart in the source and are kept apart here.
Legend:
[1] = target: T1, Jack Bean α-mannosidase (Canavalia ensiformis, UniProt C0HJB3); test: Inhibition of Jack Bean α-mannosidase; assay type: biochemical
T1 construct: purchased Sigma
T1 sequence (C0HJB3 1-981): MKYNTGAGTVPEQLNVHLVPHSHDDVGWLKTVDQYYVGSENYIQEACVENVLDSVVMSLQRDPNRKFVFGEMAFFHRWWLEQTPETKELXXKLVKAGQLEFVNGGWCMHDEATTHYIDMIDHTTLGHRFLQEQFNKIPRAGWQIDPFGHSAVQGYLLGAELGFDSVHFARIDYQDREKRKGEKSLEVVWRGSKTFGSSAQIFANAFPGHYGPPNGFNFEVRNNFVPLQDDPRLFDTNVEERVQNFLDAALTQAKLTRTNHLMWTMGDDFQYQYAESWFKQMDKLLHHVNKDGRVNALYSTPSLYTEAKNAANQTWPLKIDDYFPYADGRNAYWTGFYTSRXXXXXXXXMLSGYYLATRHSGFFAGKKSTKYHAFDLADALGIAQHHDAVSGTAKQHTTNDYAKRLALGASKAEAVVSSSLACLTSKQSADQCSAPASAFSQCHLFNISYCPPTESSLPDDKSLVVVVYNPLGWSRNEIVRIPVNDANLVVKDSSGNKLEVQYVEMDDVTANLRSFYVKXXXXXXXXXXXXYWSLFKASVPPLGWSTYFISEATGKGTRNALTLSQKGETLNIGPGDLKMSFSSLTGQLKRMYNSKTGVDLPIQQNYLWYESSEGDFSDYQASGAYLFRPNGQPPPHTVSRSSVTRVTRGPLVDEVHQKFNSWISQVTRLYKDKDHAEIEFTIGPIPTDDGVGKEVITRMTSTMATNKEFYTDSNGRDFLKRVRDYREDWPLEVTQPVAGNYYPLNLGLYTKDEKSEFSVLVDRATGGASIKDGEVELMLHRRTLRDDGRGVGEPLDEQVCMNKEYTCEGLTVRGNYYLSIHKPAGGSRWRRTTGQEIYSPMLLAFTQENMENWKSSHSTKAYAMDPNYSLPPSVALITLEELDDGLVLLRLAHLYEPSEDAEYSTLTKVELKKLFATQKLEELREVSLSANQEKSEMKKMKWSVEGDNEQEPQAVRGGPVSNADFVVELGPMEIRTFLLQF
Method: Jack Bean α-mannosidase (Sigma, 38 U/ml) was diluted 1/800, 10 μl was added to each well and the plates were incubated for 20 min at 37° C. The reaction was stopped by the addition of 150 μl of 0.5M sodium carbonate and formation of p-nitrophenol was measured with a plate set at 405 nm.

[2] = tested on: B16F10 melanoma cells; test: Lung colonization assay; assay type: in vivo, C57B1/6J mice; settings: for Survivors at day 28: injected i.v.; for survival of mice 28 days after injection of treated tumor cells: versus 2-toluoyloxy-SW treated or untreated B16F10 cells
Method: B16F10 melanoma cells were maintained in log-phase growth in MEM plus 10% FCS (Gibco) either untreated or treated for 48 hr with SW or analogues of SW. Cells were harvested with trypsin/EDTA (Gibco), washed and 10^5 melanoma cells in 100 μl of phosphate buffered saline (PBS) were injected into the lateral tail vein of male C57B1/6J mice. The lungs were removed from the mice and tumor nodules were counted at death or on day 28 when the experiment was terminated.
B16F10 melanoma cells were injected into the lateral tail vein of C57B1/6 mice at 10^5 cells/mouse. […] The experiment was terminated on day 28 and lung colonies in the mice were counted.

[3] = target: lysosomal mannosidase; test: Lysosomal mannosidase assay (pH 5.0); assay type: biochemical; settings: para-nitrophenyl α-mannose
Method: The assay for rat liver Golgi α-mannosidase II contained 5 mM para-nitrophenylα-mannose, 40 mM sodium acetate pH 5.6, plus serially diluted test compouunds and mannosidase enzyme in a total volume of 50 ul, in 96 well plates. Plates were incubated 45 min at 37° C., then the reaction was stopped with 50 μl of 0.5M sodium carbonate. The absorbance of reaction products was read at 405 nm. The lysosomal mannosidase was done in the same procedure but with 40 mM sodium acetate buffer pH 5.0. The numbers in the table are IC50 values in μM for inhibition of mannosidase activity.

[4] = tested on: MDAY-D2 tumor cells; settings: cited from earlier work
[5] = p-nitrophenyl α-D-mannopyranoside, pH 5.0, 20 min 37° C., read-out: IC50 for inhibition of J.B. α-mannosidase
[6] = tumor cells cultured 48 hr with 0.02 ug/ml drug
[7] = tumor cells cultured 48 hr with 0.1 ug/ml drug
[8] = tumor cells cultured 48 hr with 1.0 ug/ml drug

Row | SMILES | IC50 [1, 5] | reduction of inhibitor activity / greater IC50 for α-mannosidase in vitro compared to SW ([1]; compared to SW) | lung colonies (mean ± range) [2, 7] | Survivors at day 28 [2, 7] | lung colonies (mean ± range) [2, 8] | Survivors at day 28 [2, 8] | also measured
1 | O=C(OC1CN2CCCC(O)C2C1O)c1ccccc1 (centres unmarked) [2-benzoyloxy-SW] | 350 µM | – | – | – | – | – | –
2 | CCCC(=O)OC1CN2CCCC(O)C2C1O (centres unmarked) [2-butanoyloxy-SW] | – | 300 fold | – | – | – | – | IC50 [1]: 123 µM
3 | CCCCCCCC(=O)OC1CN2CCCC(O)C2C1O (centres unmarked) [2-octanoyloxy-SW] | 123 µM | 300 fold | 13 (8-20) | 3/5 | 1 (0-2) | 2/5 | lung colonies (mean ± range) [2, 6]: 9 (5-17); Survivors at day 28 [2, 6]: 3/5; survival of mice 28 days after injection of treated tumor cells [2]: significantly higher
4 | O=C(OC1CN2CCCC(O)C2C1O)c1ccc([N+](=O)[O-])cc1 (centres unmarked) [2-p-nitrobenzoyloxy-SW] | 123 µM | 300 fold | – | – | – | – | –
5 | Cc1ccc(C(=O)O[C@@H]2CN3CCC[C@@H](O)[C@@H]3[C@@H]2O)cc1 [2-toluoyloxy-SW] | 350 µM | – | > 100 | 0/5 | > 100 | 0/5 | –
6 | OC1CN2C[C@@H](O)[C@@H](O)[C@H]2[C@H](O)C1O (some centres unmarked) [6,7-dihydroxy-SW] | 50 µM | – | – | – | – | – | less active than SW in the Jack Bean α-mannosidase assay ([1]; compared to SW): 100 times
7 | CCCCCCCCCCCCCC(=O)OC1CCCN2CC(O)C(O)C12 (centres unmarked) [8-myristinoyloxy-SW] | > 500 µM | – | – | – | – | – | –
8 | CCCCCCCCCCCCCCCC(=O)OC1CCCN2CC(O)C(O)C12 (centres unmarked) [8-palmitoyloxy-SW] | 240 µM | – | – | – | – | – | –
9 | O[C@H]1[C@H]2[C@H](O)CCCN2C[C@H]1O [SW, Swainsonine, reference compound] | – | – | 5 (2-10) | 4/5 | 3 (0-4) | 4/5 | lung colonies (mean ± range) [2, 6]: 23 (15-31); Survivors at day 28 [2, 6]: 2/5; survival of mice 28 days after injection of treated tumor cells [2]: significantly higher; IC50 [3]: 0.082 µM; L-PHA concentration to which cells cultured in the presence of SW are resistant [4]: > 100 µg/mL
